ChEMBL document CHEMBL5154907, “Discovery and Anti-Inflammatory Activity Evaluation of a Novel CDK8 Inhibitor through Upregulation of IL-10 for the Treatment of Inflammatory Bowel Disease In Vivo” (J Med Chem, 2022)

How the values were obtained:
[1] = target: CDK8/Cyclin C (Homo sapiens) (UniProt P49336+P24863); assay: Inhibition of recombinant full length His tagged human CDK8/Cyclin C expressed in Baculovirus at 200 nM incubated for 60 mins in presence of ATP by ADP-Glo kinase assay
[2] = target: CDK8/Cyclin C (Homo sapiens, UniProt P49336); assay: Inhibition of recombinant full length His tagged human CDK8/Cyclin C expressed in Baculovirus incubated for 60 mins in presence of ATP by ADP-Glo kinase assay
Sequence of CDK8/Cyclin C (P49336 whole entry): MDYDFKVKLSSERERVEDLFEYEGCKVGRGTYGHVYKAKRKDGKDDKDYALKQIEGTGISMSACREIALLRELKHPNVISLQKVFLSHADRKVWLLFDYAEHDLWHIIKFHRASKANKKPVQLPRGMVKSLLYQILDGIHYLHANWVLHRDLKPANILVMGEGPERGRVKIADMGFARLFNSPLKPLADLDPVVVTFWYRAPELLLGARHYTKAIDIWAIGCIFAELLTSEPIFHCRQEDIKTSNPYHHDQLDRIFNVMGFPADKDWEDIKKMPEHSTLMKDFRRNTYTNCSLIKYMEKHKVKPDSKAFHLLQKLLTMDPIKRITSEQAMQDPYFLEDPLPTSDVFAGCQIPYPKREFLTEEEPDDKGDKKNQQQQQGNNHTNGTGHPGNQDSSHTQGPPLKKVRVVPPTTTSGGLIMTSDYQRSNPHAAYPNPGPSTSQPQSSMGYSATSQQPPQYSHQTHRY
Sequence of CDK8/Cyclin C (P24863 whole entry, further chain): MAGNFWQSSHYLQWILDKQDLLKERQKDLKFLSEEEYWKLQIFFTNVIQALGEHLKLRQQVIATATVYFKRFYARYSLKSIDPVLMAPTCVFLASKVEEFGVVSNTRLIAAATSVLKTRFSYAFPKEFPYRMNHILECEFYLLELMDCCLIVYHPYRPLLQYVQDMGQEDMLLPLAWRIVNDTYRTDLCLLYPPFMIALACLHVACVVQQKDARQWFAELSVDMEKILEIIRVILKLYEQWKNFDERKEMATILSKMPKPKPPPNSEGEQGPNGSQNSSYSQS

[3] = Transcriptional activity of AP-1 in R848-stimulated mouse BMDC cells transfected with pAP1-luc assessed as ratio of AP-1 activity at 5 uM treated for 24 hrs followed by R848 stimulation for 4 hrs by luminescence based microplate reader analysis relative to control; type: functional; conditions: time 28 hrs
[4] = test system: BMDC; assay: Anti-inflammatory activity against R848-stimulated mouse BMDC cells assessed as upregulation of IL-10 production at 5 uM treated for 24 hrs followed by R848 stimulation for 12 hrs by ELISA method (reference value: 100 %); type: functional; conditions: time 36 hrs

| Structure (SMILES) | inhibition [1] | IC50 [2] | Ratio [3] | Activity [4] |
| --- | --- | --- | --- | --- |
| O=c1cc(-c2ccccc2)oc2cc(-c3ccc(C(F)(F)F)cc3)cc(O)c12 | 28% | 2110 nM | 1.4 | – |
| CCc1ccc(NC(=O)c2cc(O)cc(-c3ccc(C(=O)N4CCNCC4)cc3)c2)cc1 | 48% | – | – | 72% |
| Cc1ccc(-c2cc(O)c3c(=O)cc(-c4ccccc4)oc3c2)cc1 | 62% | 155 nM | 2.6 | 83% |
| Cc1ccc(NC(=O)c2cc(O)cc(-c3ccc(C(=O)N4CCNCC4)cc3)c2)cc1 | 21% | – | – | 34% |
| CN(C)c1ccc(-c2cc(O)c3c(=O)cc(-c4ccccc4)oc3c2)cc1 | 62% | 177 nM | 1.4 | – |
| CN(C)Cc1ccc(-c2cc(O)c3c(=O)cc(-c4ccccc4)oc3c2)cc1 | 47% | – | – | 82% |
| CC(=O)Nc1ccccc1NC(=O)c1cncc(-c2ccc(C(=O)N3CCNCC3)cc2)c1 | 47% | – | – | 29% |
| Cn1cc(-c2cc(O)c3c(=O)cc(-c4ccccc4)oc3c2)cn1 | 11% | – | – | 57% |
| CC(=O)Nc1cccc(NC(=O)c2cc(O)cc(-c3ccc(C(=O)N4CCNCC4)cc3)c2)c1 | – | – | – | 12% |
| O=c1cc(-c2ccccc2)oc2cc(-c3ccc(OC(F)(F)F)cc3)cc(O)c12 | 48% | – | – | 44% |
| CCN1CCN(C(=O)c2ccc(-c3cc(O)c4c(=O)cc(-c5ccccc5)oc4c3)cc2)CC1 | 57% | – | – | 23% |
| CCN1CCN(c2ccc(-c3cc(O)c4c(=O)cc(-c5ccccc5)oc4c3)cc2)CC1 | 29% | – | – | 40% |
| CCc1ccc(-c2cc(O)c3c(=O)cc(-c4ccccc4)oc3c2)cc1 | 31% | – | – | – |
| Cc1ccc(NC(=O)c2cncc(-c3ccc(C(=O)N4CCNCC4)cc3)c2)cc1 | 77% | – | – | 62% |
| Cc1noc(C)c1-c1cc(O)c2c(=O)cc(-c3ccccc3)oc2c1 | 12% | – | – | 30% |
| O=c1cc(-c2ccccc2)oc2cc(-c3cncnc3)cc(O)c12 | 35% | 548 nM | – | – |
| CC(=O)Nc1ccc(NC(=O)c2cc(O)cc(-c3ccc(C(=O)N4CCNCC4)cc3)c2)cc1 | 45% | – | – | 30% |
| CC(=O)Nc1ccc(-c2cc(O)c3c(=O)cc(-c4ccccc4)oc3c2)cc1 | 54% | – | – | 49% |
| CC(=O)Nc1cccc(NC(=O)c2cncc(-c3ccc(C(=O)N4CCNCC4)cc3)c2)c1 | 65% | 134 nM | – | 78% |
| O=c1cc(-c2ccccc2)oc2cc(-c3ccc(Cl)cc3)cc(O)c12 | 31% | – | – | – |
| O=C(Nc1cccc(Cl)c1)c1cncc(-c2ccc(C(=O)N3CCNCC3)cc2)c1 | 47% | – | – | 39% |
| COc1ccc(NC(=O)c2cc(O)cc(-c3ccc(C(=O)N4CCNCC4)cc3)c2)cc1 | 61% | – | – | 56% |
| CN1CCN(c2ccc(-c3cc(O)c4c(=O)cc(-c5ccccc5)oc4c3)cc2)CC1 | 42% | – | 1.4 | 53% |
| O=C(Nc1ccc(OC(F)(F)F)cc1)c1cncc(-c2ccc(C(=O)N3CCNCC3)cc2)c1 | 55% | – | – | 62% |

| Structure (SMILES) | inhibition [1] | IC50 [2] | Ratio [3] | Activity [4] |
| --- | --- | --- | --- | --- |
| CC(C)(C)c1ccc(NC(=O)c2cc(O)cc(-c3ccc(C(=O)N4CCNCC4)cc3)c2)cc1 | 35% | – | – | 72% |
| CC(C)c1cccc(NC(=O)c2cncc(-c3ccc(C(=O)N4CCNCC4)cc3)c2)c1 | 64% | – | – | – |
| O=C(Nc1ccc(OC(F)(F)F)cc1)c1cc(O)cc(-c2ccc(C(=O)N3CCNCC3)cc2)c1 | 5% | – | – | 88% |
| O=C(NCc1ccoc1)c1cncc(-c2ccc(C(=O)N3CCNCC3)cc2)c1 | 61% | – | – | 60% |
| COc1ccc(-c2cc(O)c3c(=O)cc(-c4ccccc4)oc3c2)cc1 | 47% | – | – | 76% |
| O=c1cc(-c2ccccc2)oc2cc(-c3ccoc3)cc(O)c12 | 29% | – | – | 48% |
| O=C(c1ccc(-c2cc(O)c3c(=O)cc(-c4ccccc4)oc3c2)cc1)N1CCSCC1 | 19% | – | – | 46% |
| O=C(Nc1cccc(F)c1)c1cc(O)cc(-c2ccc(C(=O)N3CCNCC3)cc2)c1 | 20% | – | – | 26% |
| CC(C)c1ccc(NC(=O)c2cncc(-c3ccc(C(=O)N4CCNCC4)cc3)c2)cc1 | 62% | – | – | 61% |
| O=c1cc(-c2ccccc2)oc2cc(-c3ccncc3)cc(O)c12 | 24% | – | 1.2 | 73% |
| O=C(Nc1ccc(F)cc1)c1cncc(-c2ccc(C(=O)N3CCNCC3)cc2)c1 | 60% | – | – | 75% |
| O=C(c1ccc(-c2cc(O)c3c(=O)cc(-c4ccccc4)oc3c2)cc1)N1CCOCC1 | 6% | – | – | 25% |
| O=C(Nc1cccc(C(F)(F)F)c1)c1cc(O)cc(-c2ccc(C(=O)N3CCNCC3)cc2)c1 | 15% | – | – | 19% |
| Cc1cc(C)c(NC(=O)c2cc(O)cc(-c3ccc(C(=O)N4CCNCC4)cc3)c2)c(C)c1 | 38% | – | – | 59% |
| O=C(Nc1cccc(OC(F)(F)F)c1)c1cc(O)cc(-c2ccc(C(=O)N3CCNCC3)cc2)c1 | – | – | – | 10% |
| O=C(Nc1ccccc1F)c1cncc(-c2ccc(C(=O)N3CCNCC3)cc2)c1 | 55% | – | – | 62% |
| Nc1cccc(NC(=O)c2cc(O)cc(-c3ccc(C(=O)N4CCNCC4)cc3)c2)c1 | 39% | – | – | 53% |
| O=C(NC1CCCCC1)c1cncc(-c2ccc(C(=O)N3CCNCC3)cc2)c1 | 53% | – | – | 59% |
| COc1cccc(NC(=O)c2cc(O)cc(-c3ccc(C(=O)N4CCNCC4)cc3)c2)c1 | 36% | – | – | 17% |
| O=C(Nc1ccccc1F)c1cc(O)cc(-c2ccc(C(=O)N3CCNCC3)cc2)c1 | 19% | – | – | 42% |
| CC(C)c1cccc(NC(=O)c2cc(O)cc(-c3ccc(C(=O)N4CCNCC4)cc3)c2)c1 | 29% | – | – | 62% |
| O=C(Nc1ccc(C(F)(F)F)cc1)c1cc(O)cc(-c2ccc(C(=O)N3CCNCC3)cc2)c1 | 40% | – | – | 8% |
| CC(C)c1ccccc1NC(=O)c1cc(O)cc(-c2ccc(C(=O)N3CCNCC3)cc2)c1 | 53% | – | – | 23% |
| Nc1cccc(NC(=O)c2cncc(-c3ccc(C(=O)N4CCNCC4)cc3)c2)c1 | 59% | – | – | 60% |

| Structure (SMILES) | inhibition [1] | IC50 [2] | Ratio [3] | Activity [4] |
| --- | --- | --- | --- | --- |
| COc1ccccc1NC(=O)c1cncc(-c2ccc(C(=O)N3CCNCC3)cc2)c1 | 60% | – | – | 62% |
| CN1CCN(Cc2ccc(-c3cc(O)c4c(=O)cc(-c5ccccc5)oc4c3)cc2)CC1 | 25% | – | 1.1 | 36% |
| O=c1cc(-c2ccccc2)oc2cc(-c3ccc(CN4CCOCC4)cc3)cc(O)c12 | 43% | – | – | 53% |
| CCCN1CCN(C(=O)c2ccc(-c3cc(O)c4c(=O)cc(-c5ccccc5)oc4c3)cc2)CC1 | 29% | – | – | 53% |
| O=C(NCCc1ccccc1)c1cncc(-c2ccc(C(=O)N3CCNCC3)cc2)c1 | 52% | – | – | 62% |
| O=C(Nc1cccc(F)c1)c1cncc(-c2ccc(C(=O)N3CCNCC3)cc2)c1 | 42% | – | – | 53% |
| Cc1cccc(NC(=O)c2cc(O)cc(-c3ccc(C(=O)N4CCNCC4)cc3)c2)c1 | 20% | – | – | 76% |
| CN1CCN(C(=O)c2ccc(-c3cc(O)c4c(=O)cc(-c5ccccc5)oc4c3)cc2)CC1 | – | – | – | 19% |
| O=C(NCc1ccccc1)c1cncc(-c2ccc(C(=O)N3CCNCC3)cc2)c1 | 62% | – | – | 72% |
| CC1CCc2nc(N)c(C#N)c(-c3cccnc3)c2C1 (stereo not given) | – | 211 nM | 2.5 | 66% |
| CN(C)C(=O)c1ccc(-c2cc(O)c3c(=O)cc(-c4ccccc4)oc3c2)cc1 | 43% | – | – | 76% |
| O=C(Nc1ccc(C(F)(F)F)cc1)c1cncc(-c2ccc(C(=O)N3CCNCC3)cc2)c1 | 23% | – | – | 19% |
| O=C(Nc1ccc(F)cc1)c1cc(O)cc(-c2ccc(C(=O)N3CCNCC3)cc2)c1 | 12% | – | – | 42% |
| COc1cc(-c2cc(O)c3c(=O)cc(-c4ccccc4)oc3c2)cc(OC)c1OC | 27% | – | – | 78% |
| O=c1cc(-c2ccccc2)oc2cc(-c3ccc(N4CCOCC4)cc3)cc(O)c12 | 19% | – | – | 23% |
| Nc1ccc(NC(=O)c2cc(O)cc(-c3ccc(C(=O)N4CCNCC4)cc3)c2)cc1 | 31% | – | – | 20% |
| COc1cc(OC)c(-c2cc(O)c3c(=O)cc(-c4ccccc4)oc3c2)c(OC)c1 | 56% | 205 nM | – | – |
| O=c1cc(-c2ccccc2)oc2cc(-c3ccsc3)cc(O)c12 | 6% | – | – | – |
| O=C(Nc1ccccc1)c1cccc(-c2ccc(C(=O)N3CCNCC3)cc2)c1 | 67% | 162 nM | 1.7 | – |
| CC(C)(C)c1ccc(NC(=O)c2cncc(-c3ccc(C(=O)N4CCNCC4)cc3)c2)cc1 | 54% | – | – | 63% |
| CC(C)c1ccc(NC(=O)c2cc(O)cc(-c3ccc(C(=O)N4CCNCC4)cc3)c2)cc1 | 28% | – | – | 53% |
| O=C(Nc1cccc(OC(F)(F)F)c1)c1cncc(-c2ccc(C(=O)N3CCNCC3)cc2)c1 | 44% | – | – | 48% |
| CC(C)c1ccccc1NC(=O)c1cncc(-c2ccc(C(=O)N3CCNCC3)cc2)c1 | 58% | – | – | 78% |
